Consider 2 sequences from patent US9745384B2, “Peptides useful for modulating histone demethylase function” (The Brigham and Women's Hospital, Inc., priority 2012, dated 2017).

Ends that are not written are not given here.

The target in one test is T1, LSD2 (residues 51-822) (Homo sapiens, UniProt Q8NB78).
T1 construct: Human LSD2 (residues 51-822) was subcloned into a pFastBacl derivative; His6 (cleaved yes); made in house; host or cells: Sf9 insect cells (baculovirus)
T1 sequence (Q8NB78 51-822): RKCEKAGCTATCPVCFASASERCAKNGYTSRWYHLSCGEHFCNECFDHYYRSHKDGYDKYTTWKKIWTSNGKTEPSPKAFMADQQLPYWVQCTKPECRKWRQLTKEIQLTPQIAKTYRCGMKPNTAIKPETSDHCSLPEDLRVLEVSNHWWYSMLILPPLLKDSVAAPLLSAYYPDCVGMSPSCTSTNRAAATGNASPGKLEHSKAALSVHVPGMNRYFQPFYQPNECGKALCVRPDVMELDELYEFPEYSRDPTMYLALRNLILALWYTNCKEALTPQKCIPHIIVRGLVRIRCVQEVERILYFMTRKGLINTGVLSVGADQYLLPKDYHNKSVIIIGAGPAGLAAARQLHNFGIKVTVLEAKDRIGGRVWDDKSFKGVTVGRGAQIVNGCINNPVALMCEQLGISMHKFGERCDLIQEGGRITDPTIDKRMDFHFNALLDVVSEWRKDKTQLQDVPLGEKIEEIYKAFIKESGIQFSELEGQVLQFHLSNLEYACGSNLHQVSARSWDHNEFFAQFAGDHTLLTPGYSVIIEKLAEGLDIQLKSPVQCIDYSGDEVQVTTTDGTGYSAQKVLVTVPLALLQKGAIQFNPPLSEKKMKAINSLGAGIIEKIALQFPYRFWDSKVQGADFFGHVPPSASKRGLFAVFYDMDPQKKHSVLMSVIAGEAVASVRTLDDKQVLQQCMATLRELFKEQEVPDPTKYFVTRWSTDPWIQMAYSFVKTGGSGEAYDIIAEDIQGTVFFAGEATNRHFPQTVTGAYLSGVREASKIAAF
Kind of test: ITC binding of wild-type and mutant NPAC peptides (residues 214-225) with LSD2. The following applies: 15 °C; 3 mM NPAC peptide injected into 0.2 mM LSD2. On the procedure: (§1) All proteins and peptides were prepared in 10 mM HEPES, pH 8.0, and 0.1 M NaCl. The data were fitted by software Origin 7.0.

Test [1] concerns the target T2, LSD2 and NPAC.214-225.F217A (Homo sapiens, UniProt Q8NB78).
T2 construct: containing 0.029 mM LSD2 (residues 51-822) or LSD2-NPAC complex; His6 (cleaved yes); made in house; host or cells: LSD2: Sf9 insect cells; NPAC peptide: chemical synthesis
As to the kind of experiment: ITC binding of H3K4M peptide with LSD2 in complex with F217A NPAC peptide. The following applies: FIG. 6H. How it is done: as §1

The target of a further test is T3, His-LSD2 (Homo sapiens, UniProt Q8NB78).
T3 construct: typically 0.5 μg full-length His-LSD2; made in house; host or cells: Sf9 insect cells
T3 sequence (Q8NB78 1-822): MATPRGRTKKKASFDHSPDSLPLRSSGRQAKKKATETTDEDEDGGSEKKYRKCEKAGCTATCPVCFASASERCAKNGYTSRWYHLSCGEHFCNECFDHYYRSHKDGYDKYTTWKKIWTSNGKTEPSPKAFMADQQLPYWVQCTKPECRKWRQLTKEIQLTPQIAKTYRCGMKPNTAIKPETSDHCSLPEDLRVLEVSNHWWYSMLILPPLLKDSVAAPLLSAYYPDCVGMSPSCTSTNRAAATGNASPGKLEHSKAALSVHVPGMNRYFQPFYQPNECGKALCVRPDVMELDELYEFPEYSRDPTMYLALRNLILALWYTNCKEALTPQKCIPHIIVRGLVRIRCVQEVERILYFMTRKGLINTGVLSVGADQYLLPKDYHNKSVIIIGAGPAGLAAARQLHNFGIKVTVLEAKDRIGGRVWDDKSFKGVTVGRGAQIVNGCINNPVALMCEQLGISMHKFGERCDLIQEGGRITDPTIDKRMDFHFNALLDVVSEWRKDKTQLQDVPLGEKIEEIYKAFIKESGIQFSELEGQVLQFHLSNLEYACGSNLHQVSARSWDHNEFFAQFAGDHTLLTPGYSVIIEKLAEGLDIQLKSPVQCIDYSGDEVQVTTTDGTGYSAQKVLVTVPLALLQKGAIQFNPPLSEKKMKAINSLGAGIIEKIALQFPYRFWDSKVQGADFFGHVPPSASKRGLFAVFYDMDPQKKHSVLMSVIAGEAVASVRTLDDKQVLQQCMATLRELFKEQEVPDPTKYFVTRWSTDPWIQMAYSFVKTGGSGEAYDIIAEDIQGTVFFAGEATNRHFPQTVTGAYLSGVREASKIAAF
Kind of test: Nucleosome demethylation assay (NPAC cofactor activity for LSD2, immunoblot). Format: biochemical. The following applies: threshold dosage of His-LSD2; nucleosomes purified from HeLa. How it is done: For nucleosome demethylation assays, typically 0.5 μg full-length His-LSD2, 1 μg NPAC protein or peptides, and 2 μg nucleosomes purified from HeLa were used, and demethylation efficiency was analyzed by SDS-PAGE electrophoresis and immunoblot using methylation specific anti-histone H3 antibodies as previously described (Shi et al. 2004).
(Immunoblotting shows a protein as a band on a membrane.)

Another test has as its target T4, LSD2 (Homo sapiens, UniProt Q8NB78).
T4 construct: 0.15 μM or 1.2 μM purified LSD2 (residues 51-822); His6 (cleaved yes); made in house; host or cells: Sf9 insect cells (baculovirus)
T4 sequence (Q8NB78 51-822): T1 sequence (Q8NB78 51-822)
As to the kind of experiment: H3K4me2 peptide demethylation assay (MALDI-TOF). Format: biochemical. The following applies: H3K4me2 peptide residues 1-21. On the procedure:
FIGS. 12A-12F depict analysis of LSD2 demethylation activity and mutational analysis. […] Demethylation products were analyzed by MALDI-TOF mass spectrometry. 0.15 μM LSD2 can efficiently demethylate the longer H3K4me2 peptide (1-21), but has no detectable activity on the shorter histone peptide (1-15), demethylation of which requires high concentration (1.2 μM) of LSD2. […] It indicates the importance of histone residue 16-21 to LSD2 enzymatic activity and NPAC cofactor activity, supporting our model that NPAC assists enzyme-substrate interactions by creating a new binding site for H3 L20 in the LSD2-NPAC complex. FIG. 12C depicts LSD2 demethylation and NPAC cofactor activity on longer H3K4me2 peptide (1-44). 2 μg H3K4me2 peptide (1-44) were incubated with 0.8 μg GST-LSD2 (1-822) and 2 μg wild-type or F217A full-length GST-NPAC proteins in 100 μl demethylation buffer (50 mM Tris-HCl pH 8.1, 1 mM NAD^+, 0.1 Unit formaldehyde dehydrogenase) at 30° C. for 2 hours. LSD2 alone can efficiently demethylate di-methyl H3K4 of the long peptides, converting large majority of the substrate to H3K4me1. Wild-type NPAC protein can efficiently stimulate LSD2 demethylation, producing unmethylated H3K4. F217A mutation impairs NPAC cofactor activity as expected, showing little stimulatory effect if any. To compare demethylation efficiency, 1.2 μg bio-H3K4me2 peptide (H3 residue 1-21, equal molar ratio to 2 ug H3K4me2 1-44 peptide in above assays) was demethylated by LSD2 under identical conditions (bottom panel). […] The cofactor activity of wild-type NPAC was readily detected under the same conditions. […] Importantly, the demethylation of nucleosomal H3K4me2 was much more efficient in the presence of wild-type NPAC under same conditions (comparing lane 3 verse 4, and 8 verse 9). It is noted that no obvious cofactor effect of F217A peptide or linker regions was detected in nucleosome and peptide demethylation assays (FIG. 6E and data not shown). FIG. 12F depicts Coomassie staining of NPAC proteins used in histone demethylase assays. FIG. 12F discloses “His6” as SEQ ID NO: 75.
Histone peptides are purchased from Millipore, or custom synthesized. The purity of all peptides are >95% as determined by HPLC and mass spectrometry. In vitro histone demethylase activity assays were performed as described (Shi et al., 2004). Briefly, purified LSD2 and NPAC derived peptides or proteins were incubated with 50 μM H3K4me2 peptides (residues 1-21) in 50 mM Tris-HCl, pH 8.5, 50 mM KCl, 5 mM MgCl2, 5% glycerol at 37° C. for 30 min. The products were desalted through a C18 Ziptip (Millipore) and analyzed on a MALDI-TOF micro MX mass spectrometer (ABI 4700, Applied Biosystems). The laser intensity was kept constant for all of the samples. All MS data were processed using Data Explorer 4.5 (Applied Biosystems). […]

The next test has as its target T5, NPAC214-225.WT (Homo sapiens, UniProt Q49A26).
T5 construct: wild-type or mutant NPAC peptides (residues 214-225); made in house; host or cells: chemical synthesis
As to the kind of experiment: ITC binding between H3K4M peptide and wild-type NPAC peptide alone. The following applies: FIG. 6H.

With DPHAHHFLLSQT [NPAC.214-225.M6], at LSD2 (residues 51-822), the Binding ratio is 1.10 ± 0.01; the affinity, expressed as Kd, was 930 ± 70 nM; the “Δ H” value was -8.182 ± 0.097 kcal/mol; the “Δ S” value was −0.783 cal/mol/deg. Further, the “Ability of NPAC peptide to stabilize the LSD2-H3K4M peptide interaction” value in test [1] was “significantly diminishes the ability of NPAC to stabilize the interaction between LSD2 and the H3K4M peptide”. The “Cofactor activity: stimulation of LSD2 demethylation of nucleosomal H3K4me2” value on His-LSD2 was “abolishes cofactor activity”. Further, at LSD2, the “Cofactor activity: stimulation of LSD2 demethylation of H3K4me2 peptide” value is given as “but not the F217A mutant, can stimulate LSD2-mediated demethylation of H3K4me2 peptides”.
DPHFHHFLLSQT [NPAC.214-225.WT]: at LSD2 (residues 51-822), the Binding ratio is 1.06 ± 0.01; the dissociation constant (Kd) – broadly, a measure of binding affinity in units of concentration – amounted to 920 ± 80 nM; the “Δ H” value is -8.482 ± 0.121 kcal/mol; the “Δ S” value is given as −1.82 cal/mol/deg. The “Affinity of NPAC peptide to H3K4M peptide” value on NPAC214-225.WT was “no appreciable affinity to H3K4M peptide”. Besides, the “Cofactor activity: stimulation of LSD2 demethylation of nucleosomal H3K4me2” value at His-LSD2 is “sufficient to enhance LSD2 activity in nucleosome demethylation assays”. Further, the “Cofactor activity: stimulation of LSD2 demethylation of H3K4me2 peptide” value on LSD2 was “can stimulate LSD2-mediated demethylation of H3K4me2 peptides”.
